Columns and labels:
[1] = target: GSK3B (Homo sapiens, UniProt P49841); test: DSF; type: binding; set-up: purchased in-house DSF panel (SGC Frankfurt); conditions: 10 μM compound
Text: (§1) To investigate the selectivity profile of the different series, a differential scanning fluorimetry (DSF) assay was used. This assay offers a rapid and sensitive screening method that determines the denaturation temperature of a protein in absence and presence of a compound. This assay format measures the fluorescence of a dye, which depends on the folding state of the protein. The difference between the melting temperature (ΔTm) in the absence and presence of the compound represents the binding strength to the protein.
(§2) Measurements were performed in duplicates.

[2] = target: T1, CDK16/Cyclin Y (Homo sapiens, UniProt Q00536); test: NanoBRET; type: cell-based; conditions: Figure 7, 11-point dose-response in duplicates; read-out: NanoBRET EC50 ± SEM against CDK16
T1 construct: Full-length kinases were obtained as plasmids cloned in frame with a terminal NanoLuc-fusion; CS1810C178 (CCNY); host or cells: HEK293T
T1 sequence (Q00536 whole entry, the tested form may be a part): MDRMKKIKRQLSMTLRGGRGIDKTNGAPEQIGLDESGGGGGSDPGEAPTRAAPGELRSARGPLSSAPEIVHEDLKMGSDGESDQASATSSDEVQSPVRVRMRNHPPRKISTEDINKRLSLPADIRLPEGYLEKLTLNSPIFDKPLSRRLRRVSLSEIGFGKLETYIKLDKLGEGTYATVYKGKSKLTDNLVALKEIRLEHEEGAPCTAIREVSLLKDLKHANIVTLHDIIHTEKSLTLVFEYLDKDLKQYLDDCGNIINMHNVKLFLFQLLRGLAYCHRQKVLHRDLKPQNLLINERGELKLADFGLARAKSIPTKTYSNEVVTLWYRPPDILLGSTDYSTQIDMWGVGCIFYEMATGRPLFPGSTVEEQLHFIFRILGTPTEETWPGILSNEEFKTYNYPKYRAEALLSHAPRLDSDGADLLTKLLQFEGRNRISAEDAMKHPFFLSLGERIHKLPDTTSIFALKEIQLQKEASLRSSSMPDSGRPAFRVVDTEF
T1 sequence (Q8ND76 2-341 partner limits assumed): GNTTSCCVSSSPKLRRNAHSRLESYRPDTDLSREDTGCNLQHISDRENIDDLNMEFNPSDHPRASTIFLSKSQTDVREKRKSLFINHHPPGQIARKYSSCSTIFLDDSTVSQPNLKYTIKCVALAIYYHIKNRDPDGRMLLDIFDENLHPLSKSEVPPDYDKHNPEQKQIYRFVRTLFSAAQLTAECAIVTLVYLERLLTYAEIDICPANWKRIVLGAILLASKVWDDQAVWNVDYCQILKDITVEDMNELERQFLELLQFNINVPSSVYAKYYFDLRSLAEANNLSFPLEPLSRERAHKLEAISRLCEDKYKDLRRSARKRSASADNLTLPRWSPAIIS
Experimental: Next, to specifically quantify the outcome of the cellular activity of the compounds, a NanoBRET cellular target engagement assay was performed. The determination of the cellular potency on CDK16 correlated well with the corresponding DSF assay data (Figure S2). […] As mentioned before, the exchange from a methyl ester to an iso-propyl or tert-butyl ester led to a higher stabilization of the kinase in the DSF assay, which correlated with an increase in cellular potency as determined in the NanoBRET assay. […] The number of potential off-targets was low with 1 and 2 kinases with ΔTm >5 °C (Figure 4), highlighting these inhibitors for more comprehensive selectivity studied within the CDK and particular the TAIRE subfamily.
The assay was performed as described previously. In brief: Full-length kinases were obtained as plasmids cloned in frame with a terminal NanoLuc-fusion (Promega, Madison, WI, USA), as specified in table (Table S6). Plasmids were transfected into HEK293T cells using FuGENE HD (Promega, E2312) and proteins were allowed to express for 20h. Serially diluted inhibitor and NanoBRET Kinase Tracer (Promega) at a concentration determined previously as the KD,app (Table S5) were pipetted into white 384-well plates (Greiner 781207) using an Echo acoustic dispenser (Labcyte, San Jose, CA, USA). The corresponding protein-transfected cells were added and reseeded at a density of 2.5 × 10^5 cells/mL after trypsinization and resuspending in Opti-MEM without phenol red (Life Technologies, Carlsbad, CA, USA). The system was allowed to equilibrate for 2 h at 37 °C/5% CO2 prior to BRET measurements. To measure BRET, NanoBRET NanoGlo Substrate + Extracellular NanoLuc Inhibitor (Promega, N2540) was added as per the manufacturer’s protocol, and filtered luminescence was measured on a PHERAstar plate reader (BMG Labtech, Ortenberg, Germany) equipped with a luminescence filter pair (450 nm BP filter (donor) and 610 nm LP filter (acceptor)). Competitive displacement data were then graphed using GraphPad Prism 9 software using a normalized 3-parameter curve fit with the following equation: Y = 100/(1 + 10^(X–LogEC50)).

[3] = target: T2, CDK2 (Homo sapiens, UniProt P24941); test: DSF; type: binding; conditions: 10 μM compound
T2 construct: purchased in-house DSF panel (SGC Frankfurt)
Text: as §1, §2

[4] = target: T3, CDK16 (Homo sapiens, UniProt Q00536); test: DSF; type: binding; conditions: 10 μM compound
T3 construct: purchased in-house DSF panel (SGC Frankfurt)
T3 sequence (Q00536 163-478): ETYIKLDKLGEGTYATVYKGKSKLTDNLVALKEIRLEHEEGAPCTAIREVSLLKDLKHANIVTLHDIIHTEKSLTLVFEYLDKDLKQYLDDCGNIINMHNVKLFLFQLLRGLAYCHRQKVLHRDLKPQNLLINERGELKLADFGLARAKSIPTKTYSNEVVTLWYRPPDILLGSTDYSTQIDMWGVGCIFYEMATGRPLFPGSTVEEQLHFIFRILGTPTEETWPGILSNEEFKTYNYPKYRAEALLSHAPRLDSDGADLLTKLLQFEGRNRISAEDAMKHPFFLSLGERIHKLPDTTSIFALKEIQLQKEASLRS
Text: as §1, §2

Sequence of GSK3B (P49841 35-386): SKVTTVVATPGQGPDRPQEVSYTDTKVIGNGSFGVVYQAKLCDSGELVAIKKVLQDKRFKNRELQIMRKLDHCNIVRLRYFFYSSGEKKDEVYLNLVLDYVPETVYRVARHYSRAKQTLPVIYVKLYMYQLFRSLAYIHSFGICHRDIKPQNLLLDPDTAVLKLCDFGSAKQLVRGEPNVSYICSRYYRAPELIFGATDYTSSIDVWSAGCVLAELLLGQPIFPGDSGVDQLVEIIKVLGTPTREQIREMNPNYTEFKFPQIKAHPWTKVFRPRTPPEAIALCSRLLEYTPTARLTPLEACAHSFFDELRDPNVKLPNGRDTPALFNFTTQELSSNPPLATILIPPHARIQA

Row | ΔTm at 10 µM [1] | EC50 [2] | ΔTm at 10 µM [3] | ΔTm at 10 µM [4] | SMILES
1 | 5.9 ± 0.3 °C | 914 ± 11 nM | 5.1 ± 0.3 °C | 3.2 °C | CC(C)(C)OC(=O)NCCCCCNc1ncc(Cl)c(Nc2cc(C3CC3)n[nH]2)n1 [13c, tert-butyl (5-((5-chloro-4-((3-cyclopropyl-1H-pyrazol-5-yl)amino)pyrimidin-2-yl)amino)pentyl)carbamate]
2 | 5.8 ± 0.2 °C | 191 ± 5.9 nM | 8.1 ± 0.4 °C | 6.3 °C | Cc1cnc(NCCCCCCNC(=O)OC(C)(C)C)nc1Nc1cc(C2CC2)n[nH]1 [12e, tert-butyl (6-((4-((3-cyclopropyl-1H-pyrazol-5-yl)amino)-5-methylpyrimidin-2-yl)amino)hexyl)carbamate]
3 | 7.2 ± 0.2 °C | 124 ± 10.4 nM | 8.2 ± 0.1 °C | 6.3 ± 0.3 °C | CC(C)(C)OC(=O)NCCc1cccc(Nc2nccc(Nc3cc(C4CC4)n[nH]3)n2)c1 [11b, tert-butyl 3-((4-((3-cyclopropyl-1H-pyrazol-5-yl)amino)pyrimidin-2-yl)amino)phenethyl-carbamate]
4 | 6.3 ± 0.1 °C | 110 ± 9.7 nM | 8.4 ± 0.1 °C | 7.6 ± 0.2 °C | CC(C)(C)OC(=O)NCc1ccc(CNc2nccc(Nc3cc(C4CC4)n[nH]3)n2)cc1 [11f, tert-butyl 4-(((4-((3-cyclopropyl-1H-pyrazol-5-yl)amino)pyrimidin-2-yl)amino)methyl)-benzylcarbamate]
5 | 2.9 °C | 4160 ± 274 nM | 1.2 ± 0.2 °C | 0.9 °C | CNC(=O)c1cc(Nc2ccnc(Nc3ccc(CCNC(=O)OC(C)(C)C)cc3)n2)[nH]n1 [41a, tert-butyl 4-((4-((3-(methylcarbamoyl)-1H-pyrazol-5-yl)amino)pyrimidin-2-yl)amino)-phenethylcarbamate]
6 | 4.6 °C | 354 ± 60.5 nM | 5.9 °C | 3.2 °C | CC(C)(C)OC(=O)NCCc1ccc(Nc2ncc(Cl)c(Nc3cc(C4CC4)n[nH]3)n2)cc1 [13a, tert-butyl 4-((5-chloro-4-((3-cyclopropyl-1H-pyrazol-5-yl)amino)pyrimidin-2-yl)amino)phenethylcarbamate]
7 | 7.9 ± 0.1 °C | 100 ± 7 nM | 11.3 °C | 8.8 ± 0.1 °C | CC(=O)NCCCCCCNc1nccc(Nc2cc(C3CC3)n[nH]2)n1 [compound 15, N-(6-((4-((3-cyclopropyl-1H-pyrazol-5-yl)amino)pyrimidin-2-yl)amino)hexyl)acetamide]
8 | 4.9 ± 0.1 °C | 504 ± 9.3 nM | 4.3 ± 0.1 °C | 5.1 ± 0.1 °C | CC(C)(C)OC(=O)NCCCCCNc1nccc(Nc2cc(C(C)(C)C)n[nH]2)n1 [40b, tert-butyl (5-((4-((3-(tert-butyl)-1H-pyrazol-5-yl)amino)pyrimidin-2-yl)amino)pentyl)-carbamate]
9 | 1.3 ± 0.1 °C | 2470 ± 248 nM | 1.2 ± 0.2 °C | 1.5 ± 0.1 °C | CNC(=O)c1cc(Nc2ccnc(NCCCCCNC(=O)OC(C)(C)C)n2)[nH]n1 [41b, tert-butyl (5-((4-((3-(methylcarbamoyl)-1H-pyrazol-5-yl)amino)pyrimidin-2-yl)amino)-pentyl)carbamate]
10 | 6.1 ± 0.1 °C | 176 ± 3 nM | 7.2 ± 0.2 °C | 6.5 ± 0.1 °C | Cc1cnc(NCCCCCNC(=O)OC(C)(C)C)nc1Nc1cc(C2CC2)n[nH]1 [12c, tert-butyl (5-((4-((3-cyclopropyl-1H-pyrazol-5-yl)amino)-5-methylpyrimidin-2-yl)amino)-pentyl)carbamate]
11 | 5.7 °C | 1130 ± 20.5 nM | 5.8 ± 0.1 °C | 4.4 ± 0.1 °C | CC(C)(C)OC(=O)NCCc1ccc(Nc2nccc(Nc3cc(C(C)(C)C)n[nH]3)n2)cc1 [40a, tert-butyl 4-((4-((3-(tert-butyl)-1H-pyrazol-5-yl)amino)pyrimidin-2-yl)amino)phenethyl-carbamate]
12 | 8.2 ± 0.1 °C | 35 nM | 12.3 °C | 8.7 °C | CC(C)(C)OC(=O)NCCc1ccc(Nc2nccc(Nc3cc(C4CC4)n[nH]3)n2)cc1 [11a, tert-butyl 4-((4-((3-cyclopropyl-1H-pyrazol-5-yl)amino)pyrimidin-2-yl)amino)phenethyl-carbamate]
13 | 5.7 ± 0.2 °C | 172 ± 20.9 nM | 8.7 ± 0.1 °C | 6.2 ± 0.1 °C | Cc1cnc(Nc2ccc(CCNC(=O)OC(C)(C)C)cc2)nc1Nc1cc(C2CC2)n[nH]1 [12a, tert-butyl 4-((4-((3-cyclopropyl-1H-pyrazol-5-yl)amino)-5-methylpyrimidin-2-yl)amino)-phenethylcarbamate]
14 | 10.3 ± 0.1 °C | 400 ± 30.6 nM | 5.1 °C | 5.6 °C | COC(=O)c1cc(Nc2ccnc(NCc3ccc(N)cc3)n2)n[nH]1 [compound 25, methyl 3-((2-((4-aminobenzyl)amino)pyrimidin-4-yl)amino)-1H-pyrazole-5-carboxylate]
15 | 6.6 °C | 619 ± 32 nM | 5.3 °C | 5.8 ± 0.1 °C | Cc1cnc(NCCOCCNC(=O)OC(C)(C)C)nc1Nc1cc(C2CC2)n[nH]1 [12d, tert-butyl (2-(2-((4-((3-cyclopropyl-1H-pyrazol-5-yl)amino)-5-methylpyrimidin-2-yl)amino)ethoxy)ethyl)carbamate]

Row | SMILES | ΔTm at 10 µM [1] | EC50 [2] | ΔTm at 10 µM [3] | ΔTm at 10 µM [4]
16 | COC(=O)c1cc(Nc2ccnc(Nc3ccc(CCNC(=O)OC(C)(C)C)cc3)n2)[nH]n1 [21a, methyl 5-((2-((4-(2-((tert-butoxycarbonyl)amino)ethyl)phenyl)amino)pyrimidin-4-yl)amino)-1H-pyrazole-3-carboxylate] | 7.8 ± 0.2 °C | 652 ± 15.6 nM | 3.1 ± 0.2 °C | 4.3 ± 0.4 °C
17 | COC(=O)c1cc(Nc2ccnc(NCc3ccc(CNC(=O)OC(C)(C)C)cc3)n2)[nH]n1 [21g, methyl 5-((2-((4-(((tert-butoxycarbonyl)amino)methyl)benzyl)amino)pyrimidin-4-yl)amino)-1H-pyrazole-3-carboxylate] | 7.7 ± 0.1 °C | 879 ± 5.5 nM | 3.3 ± 0.1 °C | 5.3 ± 0.1 °C
18 | COC(=O)c1cc(Nc2nc(NCCCCCCNC(=O)OC(C)(C)C)ncc2Cl)[nH]n1 [22e, methyl 5-((2-((6-((tert-butoxycarbonyl)amino)hexyl)amino)-5-chloropyrimidin-4-yl)amino)-1H-pyrazole-3-carboxylate] | 2.9 ± 0.1 °C | 12090 ± 65 nM | 0.7 °C | 0.2 ± 0.3 °C
19 | COC(=O)c1cc(Nc2nc(Nc3cccc(CCNC(=O)OC(C)(C)C)c3)ncc2Cl)[nH]n1 [22b, methyl 5-((2-((3-(2-((tert-butoxycarbonyl)amino)ethyl)phenyl)amino)-5-chloropyrimidin-4-yl)amino)-1H-pyrazole-3-carboxylate] | 3.9 ± 0.6 °C | 3190 ± 589 nM | 2.1 ± 0.1 °C | 0.8 ± 0.1 °C
20 | COC(=O)c1cc(Nc2ccnc(NCCCCCNC(=O)OC(C)(C)C)n2)[nH]n1 [21c, methyl 5-((2-((5-((tert-butoxycarbonyl)amino)pentyl)amino)pyrimidin-4-yl)amino)-1H-pyrazole-3-carboxylate] | 8.6 °C | 107 nM | 5.6 °C | 8.5 ± 0.2 °C
21 | COC(=O)c1cc(Nc2nc(NCCOCCNC(=O)OC(C)(C)C)ncc2Cl)[nH]n1 [22d, methyl 5-((2-((2-(2-((tert-butoxycarbonyl)amino)ethoxy)ethyl)amino)-5-chloropyrimidin-4-yl)amino)-1H-pyrazole-3-carboxylate] | 2.1 ± 0.1 °C | 25000 ± 4220 nM | 0.2 °C | 0.2 ± 0.2 °C
22 | COC(=O)c1cc(Nc2nc(Nc3ccc(CCNC(=O)OC(C)(C)C)cc3)nc3ccccc23)[nH]n1 [23a, methyl 5-((2-((4-(2-((tert-butoxycarbonyl)amino)ethyl)phenyl)amino)quinazolin-4-yl)amino)-1H-pyrazole-3-carboxylate] | 1 ± 0.1 °C | 9360 ± 1020 nM | -0.1 ± 0.1 °C | 3.4 ± 0.6 °C

Source: paper PMC9736855, “Discovery of 3-Amino-1H-pyrazole-Based Kinase Inhibitors to Illuminate the Understudied PCTAIRE Family” (International Journal of Molecular Sciences, 2022)
